# Patent US5482975A, “Adenosine diphosphoribose polymerase binding nitroso aromatic compounds useful as retroviral inactivating agents, anti-retroviral agents and anti-tumor agents” (priority 1993, dated 1996)
# Entries after “also recorded” stand apart in the source; their conditions may differ.
# Key:
# [1] = tested on: human leukemia cell lines (855-2, H9, HL-60, K562); assay: [3H] thymidine uptake, human leukemia cell lines together; assay type: cell-based; conditions: 10 μM; each of the cell lines tested
# 855-2 cells [2] = assay: colony formation (CFU) of leukemic cells in semi-solid medium (FIG. 4); assay type: cell-based, human
# Experimental: Experiments were performed in which the functions of various cancer cells (855-2 and HL-60 leukemia cells, D32, D37 and CRL 7712 glioblastoma cell lines, 186 medulla tumor cell line, L1210 murine leukemia cell line, MDA-468 human breast tumor cell line) and normal cells (neutrophil leukocytes and bone marrow or peripheral blood stream cells) were assessed in the absence or presence of the compounds.
# 855-2 cells [3] = assay: cytocidal activity, MTT assay; assay type: cell-based, human; conditions: 10 μM; 100,000 cells/ml
# Experimental: MTT (3-[4,5-[…]]-2,5-diphenyltetrazolium bromide) at 1 mg/ml was then added for 16 hours. The absorbance of the pelleted cell was then measured at 550 nm after adding DMSO to solubilze the cells.
# [4] = molecular target: T1, Zn(HIV1-F1) oligonucleotide complex (Human immunodeficiency virus type 1 lw12.3 isolate, UniProt Q70622); assay: NMR study of Zn(HIV1-F1) nucleic acid binding; assay type: biochemical, HIV-1; conditions: two equivalents NOBA
# T1 construct: NC cut from Gag polyprotein (Pr55Gag)
# Description: The downfield regions of the spectra show the signals of the aromatic and ribose H1' protons, and the upfield region contain signals of the methyl group protons. Dramatic spectral changes occur upon addition of oligonucleotide to Zn(HIV1-F1), including large upfield shifts of the Phe 2 and Ile 10 side chain=n signals and a downfield shifting and broadening of the guanosine-H8 proton signal (second from the top).
# The reaction mechanism, schematically illustrated in FIG. 12, is consistent with the result of NMR analysis in FIGS. 10 and 11. The reaction mechanism proposed in FIG. 12 is a useful model but is not intended to limit the scope of the claimed invention.
# HIV-1 (LAV strain) = assay: HIV-1 inactivation assay in PBL cultures (FIG. 13A, B); assay type: cell-based; conditions: NOBA versus NOBP
# Experimental: The assay was performed as described in FIG. 13A except that the 30 min. preincubation of virus with NOBA was carried out at 0>, 22° or 37° C.
# An HIV-1 stock having an infectivity titer of 100,000 TCID50 was incubated for 30 min. at 22° C. with either of the drugs. Control HIV samples, containing no drugs, were incubated in the same manner. […] At the end of this incubation cultures were assayed for productive infection by an immunoassay for HIV-1 antigens and by reverse transcriptase as described in McDougal, et al., J. Immunol Methods 76:171-183 (1985). Virus titers were expressed as percentile values (percent infected cultures) compared to the controls, containing HIV dilutions which were not preincubated with the C-nitroso drugs. In a separate series of experiments, HIV-1 dilutions and C-nitroso drugs (see upper abscissa) were not preincubated but were added simultaneously to lymphocytes in exactly the same concentrations as described previously (i.e., following preincubation) and viral growth monitored 9 days later. […] Chem. Soc. 111:395-396 (1989), South, et al., Biochem Pharm. 40:123-129 (1990), Summers, et al., Biochemistry 29:329-340 (1990), the inhibition of HIV-1 propagation was profound when C-nitroso drugs were preincubated with HIV-1, whereas only negligible effect on HIV-1 growth occurred when both drugs and virus were added simultaneously. […]
# [5] = tested on: normal rhesus bone marrow stem cells; assay: CFU stem cell toxicity assay (FIG. 5A); conditions: 10 μM
smiles,measurement,setting,value
"NC(=O)c1cccc(N=O)c1 [NOBA, 3-nitrosobenzamide]",inhibition of 3H-thymidine uptake,[1],powerfully inhibited
same,ability to form colonies (CFU),855-2 cells [2],inhibit the ability
same,cell killing,855-2 cells [3],complete killing
same,effect on zinc finger nucleic acid complex,[4],ejection of zinc with concomitant dissociation of the zinc finger nucleic acid complex; also recorded: NOBA-induced zinc ejection leads to loss of high-affinity nucleic acid binding function
same,relative depression of HIV-1 propagation,HIV-1 (LAV strain),greater depression of HIV-1 propagation
same,CFU stem cell toxicity,[5],non-toxic
